The target in assay [1] is T1, MAP kinase-interacting serine/threonine-protein kinase 2 (Homo sapiens, UniProt Q9HBH9). Put plainly: Inhibition of N-terminal GST-tagged recombinant human full length MNK2 expressed in baculovirus expression system at 10 uM incubated for 1 hr by Kinase Tracer 236 based LanthaScreen Eu kinase binding assay relative to control. A general note: TR-FRET usually uses a lanthanide donor and a delayed reading to cut background.
Target sequence in this assay (Q9HBH9 whole entry, looked up): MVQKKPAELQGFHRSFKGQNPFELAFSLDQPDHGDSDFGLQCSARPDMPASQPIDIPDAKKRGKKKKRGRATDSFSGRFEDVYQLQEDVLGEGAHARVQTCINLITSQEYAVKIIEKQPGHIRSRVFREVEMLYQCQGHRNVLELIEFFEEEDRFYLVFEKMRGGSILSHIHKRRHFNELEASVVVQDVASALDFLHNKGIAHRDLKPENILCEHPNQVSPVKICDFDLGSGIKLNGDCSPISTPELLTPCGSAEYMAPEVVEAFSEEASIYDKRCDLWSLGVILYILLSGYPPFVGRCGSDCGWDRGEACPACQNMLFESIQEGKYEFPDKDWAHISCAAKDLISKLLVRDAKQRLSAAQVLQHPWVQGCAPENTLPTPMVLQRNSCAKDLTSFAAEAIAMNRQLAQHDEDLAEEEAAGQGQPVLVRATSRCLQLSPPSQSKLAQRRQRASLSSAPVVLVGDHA

Assay [2] addresses T1, MAP kinase-interacting serine/threonine-protein kinase 2. Nature of the assay: Inhibition of N-terminal GST-tagged recombinant human full length MNK2 expressed in baculovirus expression system incubated for 1 hr by Kinase Tracer 236 based LanthaScreen Eu kinase binding assay relative to control.
Target sequence in this assay (Q9HBH9 whole entry): as the sequence (Q9HBH9 whole entry, looked up) above
For assay [3], the system named is MV4-11. Put plainly: Cytotoxicity against human MV4-11 cells assessed as reduction in cell viability after 72 hrs by MTT assay. The settings on record: MV4-11, 72 h. The format is functional, cell-based.
Assay [4] concerns MOLM-13. Put plainly: Cytotoxicity against human MOLM-13 cells assessed as reduction in cell viability after 72 hrs by MTT assay. The class given is functional, cell-based. To be noted: MOLM-13, 72 h.
Assay [5] deals with T2, MAP kinase-interacting serine/threonine-protein kinase 1/2 (Homo sapiens) (UniProt Q9HBH9+Q9BUB5). Put plainly: Inhibition of MNK1/MNK2 in human MOLM-13 cells assessed as reduction in eIF4E phosphorylation reduction in eIF4E phosphorylation at 10 uM after 24 to 48 hrs by Western blot analysis. The class given is cell-based. To be noted: time hrs 24-48.
Assay [6] relates to MOLM-13. Nature of the assay: Induction of cell death in human MOLM-13 cells assessed as increase in accumulation at sub-G1 phase after 72 hrs by propidium iodide staining based flow cytometric analysis. The class given is functional. The settings on record: dose microM 1-30, time 72.0 hrs. (In general: Flow cytometry measures light scatter and fluorescence of single cells or particles in a stream.)

In assay [7] the test system is MV4-11. Nature of the assay: Induction of apoptosis in human MV4-11 cells assessed as increase in cleaved PARP level after 72 hrs by Western blot analysis. The format is functional, cell-based. To be noted: dose microM 1-30, time 72.0 hrs. Background: In western blotting, separated proteins are transferred to a membrane and probed.
Assay [8] has as its target T3, MAP kinase-interacting serine/threonine-protein kinase 1 (Homo sapiens, UniProt Q9BUB5). Nature of the assay: Inhibition of GST-tagged recombinant human full length MNK1 expressed in insect cells.
Target sequence in this assay (Q9BUB5 whole entry): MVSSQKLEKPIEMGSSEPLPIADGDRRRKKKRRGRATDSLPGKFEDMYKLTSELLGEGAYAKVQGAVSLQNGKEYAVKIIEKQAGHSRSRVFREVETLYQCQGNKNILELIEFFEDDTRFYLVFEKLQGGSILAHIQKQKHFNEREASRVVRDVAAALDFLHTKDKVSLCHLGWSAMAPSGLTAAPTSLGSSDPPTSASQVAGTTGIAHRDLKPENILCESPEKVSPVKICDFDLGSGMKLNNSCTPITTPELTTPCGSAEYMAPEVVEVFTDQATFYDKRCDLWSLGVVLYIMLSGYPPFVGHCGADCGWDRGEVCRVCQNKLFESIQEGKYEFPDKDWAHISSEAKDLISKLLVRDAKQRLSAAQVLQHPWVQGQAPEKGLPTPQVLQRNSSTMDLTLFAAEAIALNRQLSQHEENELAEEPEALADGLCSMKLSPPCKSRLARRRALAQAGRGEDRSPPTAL
Assay [9] relates to MOLM-13. Put plainly: Induction of apoptosis in human MOLM-13 cells assessed as increase in cleaved PARP level after 72 hrs by Western blot analysis. The class given is functional, cell-based. To be noted: dose microM 1-30, time 72.0 hrs.
The test system of assay [10] is MOLM-13. Put plainly: Induction of apoptosis in human MOLM-13 cells assessed as increase in cleaved caspace-3 level after 72 hrs by Western blot analysis. The class given is functional, cell-based. To be noted: dose microM 1-30, time 72.0 hrs.
Assay [11] addresses T3, MAP kinase-interacting serine/threonine-protein kinase 1. Put plainly: Inhibition of GST-tagged recombinant human full length MNK1 expressed in insect cells at 10 uM relative to control.
Target sequence in this assay (Q9BUB5 whole entry, looked up): as the sequence (Q9BUB5 whole entry) above
For assay [12], the system named is MOLM-13. Nature of the assay: Induction of cell cycle arrest in human MOLM-13 cells assessed as increase in accumulation at sub-G1 phase at 1 to 30 uM after 72 hrs by propidium iodide staining based flow cytometric analysis. The format is functional. The settings on record: dose microM 1-30, time 72.0 hrs.
In assay [13] the target is T2, MAP kinase-interacting serine/threonine-protein kinase 1/2 (Homo sapiens). Put plainly: Inhibition of MNK1/MNK2 in human MOLM-13 cells assessed as reduction in eIF4E phosphorylation reduction in eIF4E phosphorylation after 24 to 48 hrs by Western blot analysis. The class given is cell-based. To be noted: dose microM 1-30, time hrs 24-48.
The subject of assay [14] is MV4-11. Put plainly: Induction of cell cycle arrest in human MV4-11 cells assessed as increase in accumulation at sub-G1 phase at 1 to 30 uM after 72 hrs by propidium iodide staining based flow cytometric analysis. The settings on record: dose microM 1-30, time 72.0 hrs. The format is functional.
Assay [15] concerns MV4-11. Put plainly: Induction of cell death in human MV4-11 cells assessed as increase in accumulation at sub-G1 phase after 72 hrs by propidium iodide staining based flow cytometric analysis. To be noted: dose microM 1-30, time 72.0 hrs. The class given is functional.
Assay [16] addresses T2, MAP kinase-interacting serine/threonine-protein kinase 1/2 (Homo sapiens). Put plainly: Inhibition of MNK1/MNK2 in human MV4-11 cells assessed as reduction in eIF4E phosphorylation reduction in eIF4E phosphorylation after 24 to 48 hrs by Western blot analysis. The format is cell-based. To be noted: dose microM 1-30, time hrs 24-48.
Assay [17] deals with MOLM-13. Put plainly: Induction of cell cycle arrest in human MOLM-13 cells assessed as increase in accumulation at sub-G1 phase at 30 uM after 72 hrs by propidium iodide staining based flow cytometric analysis relative to control. The class given is functional.
Assay [18] relates to MV4-11. Nature of the assay: Induction of cell cycle arrest in human MV4-11 cells assessed as increase in accumulation at sub-G1 phase at 30 uM after 72 hrs by propidium iodide staining based flow cytometric analysis relative to control. The class given is functional.
The target of assay [19] is T2, MAP kinase-interacting serine/threonine-protein kinase 1/2 (Homo sapiens). Nature of the assay: Inhibition of MNK1/MNK2 in human MV4-11 cells assessed as reduction in eIF4E phosphorylation reduction in eIF4E phosphorylation at 10 uM after 24 to 48 hrs by Western blot analysis. The format is cell-based. The settings on record: time hrs 24-48.
Assay [20] has as its system MV4-11. Put plainly: Induction of apoptosis in human MV4-11 cells assessed as increase in cleaved caspace-3 level after 72 hrs by Western blot analysis. To be noted: dose microM 1-30, time 72.0 hrs. The format is functional, cell-based.
In assay [21] the target is T2, MAP kinase-interacting serine/threonine-protein kinase 1/2 (Homo sapiens). Nature of the assay: Inhibition of MNK1/MNK2 in human MV4-11 cells assessed as reduction in eIF4E phosphorylation reduction in eIF4E phosphorylation at 30 uM after 24 to 48 hrs by Western blot analysis. The class given is cell-based. The settings on record: time hrs 24-48.
Assay [22] has the same target. Put plainly: Inhibition of MNK1/MNK2 in human MOLM-13 cells assessed as reduction in eIF4E phosphorylation reduction in eIF4E phosphorylation at 30 uM after 24 to 48 hrs by Western blot analysis. The format is cell-based. The settings on record: time hrs 24-48.
Assay [23] concerns MV4-11. Put plainly: Induction of cell cycle arrest in human MV4-11 cells assessed as increase in accumulation at sub-G1 phase at 3 to 30 uM after 72 hrs by propidium iodide staining based flow cytometric analysis. The format is functional. To be noted: dose microM 3-30, time 72.0 hrs.
In assay [24] the test system is MOLM-13. Put plainly: Induction of cell cycle arrest in human MOLM-13 cells assessed as increase in accumulation at sub-G1 phase at 3 to 30 uM after 72 hrs by propidium iodide staining based flow cytometric analysis. The class given is functional. To be noted: dose microM 3-30, time 72.0 hrs.

Data on 14 molecules can be found in ChEMBL document CHEMBL4699554, “Biological Evaluation of Selected Flavonoids as Inhibitors of MNKs Targeting Acute Myeloid Leukemia” (J Nat Prod, 2020).

Calls of active or inactive are those of the source. No cut-off for these calls is given here. Bounds are passed on as bounds.

In the case of `O=c1cc(-c2ccccc2)oc2cc(O)ccc12`, the inhibition (as a rule, the drop in the measured response relative to a control, in per cent) in [1] is greater than 50%.
Take `COc1ccc(-c2oc3cc(OC)c(OC)c(O)c3c(=O)c2O)cc1O`: in [1], the inhibition was greater than 70%. The concentration for half-maximal inhibition (IC50) (usually the concentration that inhibits the measured activity by half) in assay [2] was 1.7 µM.
`COc1ccc(-c2cc(=O)c3ccc(O)cc3o2)cc1OC`: the inhibition in [1] is greater than 50%.
For `COc1cc(O)c2c(=O)cc(-c3ccc(O)cc3)oc2c1` [GENKWANIN], the results for the IC50 (in the assay with MV4-11 [3]; in the assay on MOLM-13 [4]; in assay [2]) were greater than 10 µM, greater than 10 µM and 0.979 µM, respectively. The inhibition in [1] is greater than 70%.
As to `COc1cc2c(c(OC)c1CC=C(C)C)C(=O)CC(c1ccc(OC)c(OC)c1C/C=C(\C)CCC=C(C)C)O2` (centres undefined), the inhibition in [1] is greater than 70%. Also, the IC50 in [2] was 8.26 µM.
On to `COc1cc(O)c(C(=O)/C=C/c2ccc(C(=O)O)cc2)c(OC)c1`, for which, in assay [1], the inhibition is greater than 70%. Also, the IC50 in assay [2] turned out to be 3.7 µM.
Regarding `COc1ccc(-c2cc(=O)c3c(O)cc(O)cc3o2)cc1`, in [1], the inhibition was greater than 50%.
For the molecule `O=c1c(O)c(-c2ccncc2)oc2ccc(Cl)cc12`, the inhibition in assay [1] was greater than 70%. The IC50 in assay [2] was found to be 6.49 µM.
`O=C(/C=C/c1cccc(O)c1)c1ccccc1O`: the inhibition in [1] is greater than 50%.
Take `COc1ccc(C(=O)/C=C/c2ccc(O)c(Br)c2)cc1`: the inhibition in assay [1] is greater than 70%. Also, in [2], the IC50 was 4.67 µM.
As to `O=c1cc(-c2ccc(O)c(O)c2)oc2cc(O)cc(O)c12` [LUTEOLIN], the inhibition in [5] is 100%; in assay [11], greater than 70%; in [1], greater than 70%; in [13], “Dose-dependent effect”; in assay [16] it was “Dose-dependent effect”; in [19], 100%. Also, the outcome with MOLM-13 [6], with MOLM-13 [12], with MV4-11 [14] and in the assay on MV4-11 [15] was Active. The Activity result in the assay on MV4-11 [7] was “Dose-dependent effect”; in the assay with MOLM-13 [9], “Dose-dependent effect”; in the assay on MOLM-13 [10], “Dose-dependent effect”; with MOLM-13 [17], greater than 80%; in the assay on MV4-11 [18], greater than 80%; in the assay on MV4-11 [20], “Dose-dependent effect”. The IC50 in [8] came to 0.179 µM; in the assay with MV4-11 [3], 3.1 µM; in the assay on MOLM-13 [4], 4.5 µM; in assay [2], 0.579 µM.
As for `O=c1cc(-c2ccc(O)cc2)oc2cc(O)cc(O)c12` [APIGENIN], the inhibition in assay [1] was greater than 70%. Also, the IC50 in [2] came out at 0.308 µM.
Take `COc1c(O)cc2oc(-c3ccc(O)cc3)cc(=O)c2c1O` [HISPIDULIN]: the inhibition in [21] is 100%; in assay [11] it was greater than 70%; in assay [1] it was 93%; in [13], “Dose-dependent effect”; in assay [22] it was 100%; in assay [16] it was “Dose-dependent effect”. Further, the result in the assay on MOLM-13 [6], in the assay with MV4-11 [15], in the assay on MV4-11 [23] and with MOLM-13 [24] was Active. For the same molecule, the Activity result in the assay on MV4-11 [7], in the assay with MOLM-13 [9], in the assay on MOLM-13 [10] and in the assay on MV4-11 [20] was “Dose-dependent effect” in each case. For the same molecule, the IC50 in [8] amounted to 1.2 µM; in the assay with MV4-11 [3], 8.2 µM; in the assay on MOLM-13 [4] it was 6.4 µM; in assay [2], 0.252 µM.
As to `COc1cc(O)c(C(=O)/C=C/c2ccccc2)c(OC)c1`, the inhibition in [1] was greater than 50%.
